Laboratory results published in patent publication US20090081197A1 (Palatin Technologies, Inc., priority 2007, published 2009).

Tests used:
MC4-R [1] = biological target: T1, MC4-R (Homo sapiens, UniProt P32245); test: Competitive inhibition assay using [I^125]-NDP-α-MSH, hMC4-R membranes; format: binding; set-up: host or cells: TREx-293 (HEK-293 stably expressing Tet repressor); conditions: 1 μM test compound; read-out: Inhibition at 1 μM (NDP-α-MSH) In Normal System, MC4-R
How it was run: (§1)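 Tracer was 0.4 nM for MC3-R and MC5-R, 0.2 nM for MC4-R and 0.1 nM for MC1-R. Bound radioactivity was gamma-counted after filtration; values are triplicate means, with results below 0% reported as 0%.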

[2] = Penile erection induction in male rats; format: in vivo; conditions: rat
How it was run: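 Male Sprague-Dawley rats (200-250 g), groups of 4-8, dosed IV or ICV at various doses and observed individually for penile erections. Only statistically relevant increases over vehicle-control mean PEs count as induction; IV responses below 1.0 PEs/rat treated as equivocal, some retested ICV.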

MC1-R [3] = biological target: T2, MC1-R (Mus musculus, UniProt Q01727); test: Competitive inhibition assay using [I^125]-NDP-α-MSH, B-16 mouse melanoma cell membranes; format: binding; conditions: for inhibition at 1 µM: 1 μM test compound, read-out: Inhibition at 1 μM (NDP-α-MSH) In Normal System, MC1-R; for Ki: read-out: Ki (nM) (NDP-α-MSH) In Normal System, MC1-R
T2 construct: B-16 mouse melanoma cells (containing MC1-R); endogenous in cells
T2 sequence (Q01727 whole entry): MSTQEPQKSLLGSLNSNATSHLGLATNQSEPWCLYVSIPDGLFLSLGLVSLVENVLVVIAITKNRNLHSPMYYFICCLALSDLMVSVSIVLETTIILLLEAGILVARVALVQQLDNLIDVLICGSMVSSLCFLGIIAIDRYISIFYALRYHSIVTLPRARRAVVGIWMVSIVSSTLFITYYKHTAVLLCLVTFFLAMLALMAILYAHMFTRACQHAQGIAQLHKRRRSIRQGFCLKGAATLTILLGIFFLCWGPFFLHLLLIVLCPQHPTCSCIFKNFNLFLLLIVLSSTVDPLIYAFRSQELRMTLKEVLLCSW
How it was run: as §1

MC4-R [4] = biological target: T1, MC4-R; test: cAMP agonist stimulation, low receptor density system (0.1 ng/mL doxycycline); conditions: 0.1 ng/mL doxycycline, low receptor density hMC4-R system; NDP-α-MSH maximal cAMP = 1.0
MC4-R [5] = biological target: T1, MC4-R; test: cAMP agonist stimulation, high receptor density system (10 ng/mL doxycycline); conditions: for Efficacy/Intrinsic Activity: 10 ng/mL doxycycline, high receptor density hMC4-R system, NDP-α-MSH maximal cAMP = 1.0
MC3-R [6] = biological target: T3, MC3-R (Homo sapiens, UniProt P41968); test: Competitive inhibition assay using [I^125]-NDP-α-MSH, hMC3-R membranes; format: binding; set-up: expressed in transfected cells; conditions: 1 μM test compound; read-out: Inhibition at 1 μM (NDP-α-MSH) In Normal System, MC3-R
T3 sequence (P41968 whole entry): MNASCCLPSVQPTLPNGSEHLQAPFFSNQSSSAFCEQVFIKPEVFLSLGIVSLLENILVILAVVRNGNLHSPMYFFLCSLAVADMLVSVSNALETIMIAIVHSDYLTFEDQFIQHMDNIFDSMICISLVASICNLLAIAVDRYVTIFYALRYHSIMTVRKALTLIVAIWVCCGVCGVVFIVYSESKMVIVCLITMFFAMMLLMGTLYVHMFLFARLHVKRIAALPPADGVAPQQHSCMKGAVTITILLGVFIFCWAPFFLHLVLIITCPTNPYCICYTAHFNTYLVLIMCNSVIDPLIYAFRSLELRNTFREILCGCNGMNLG
How it was run: as §1

MC3-R [7] = biological target: T3, MC3-R; test: cAMP functional activity assay in HEK-293 cells; format: cell-based; set-up: expressed in transfected cells; host or cells: HEK-293; conditions: 1 μM concentration where stated
Method: (§2) General method for EC50 determination in functional activity assay. […] Data analysis and EC50 values were determined using nonlinear regression analysis with Prism Graph-Pad software.
(§3) Functional status. The agonist/antagonist status with respect to MC1-R, MC-3R, MC4-R and MC5-R of certain compounds of the invention was determined. Antagonistic activity was determined by measuring the inhibition of α-MSH-induced or NDP-α-MSH-induced cAMP levels following exposure to graded doses of compounds as in the preceding descriptions.

MC5-R [8] = biological target: T4, MC5-R (Homo sapiens, UniProt P33032); test: cAMP functional activity assay in HEK-293 cells; format: cell-based; set-up: expressed in transfected cells; host or cells: HEK-293; conditions: 1 μM concentration where stated
T4 sequence (P33032 whole entry): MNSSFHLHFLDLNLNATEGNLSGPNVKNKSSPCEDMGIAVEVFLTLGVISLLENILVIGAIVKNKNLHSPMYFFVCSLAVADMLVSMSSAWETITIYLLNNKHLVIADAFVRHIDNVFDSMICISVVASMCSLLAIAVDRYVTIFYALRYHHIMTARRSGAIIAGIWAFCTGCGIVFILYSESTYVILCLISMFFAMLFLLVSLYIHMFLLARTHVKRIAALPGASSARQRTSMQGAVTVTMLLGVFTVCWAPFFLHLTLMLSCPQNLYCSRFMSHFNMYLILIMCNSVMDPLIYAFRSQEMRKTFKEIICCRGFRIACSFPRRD
Method: as §2, §3

MC4-R [9] = biological target: T1, MC4-R; test: cAMP functional activity assay in HEK-293 cells, normal system; format: cell-based; set-up: expressed in transfected cells; host or cells: HEK-293; conditions: for intrinsic activity at MC4-R in a normal system: normal receptor density system, NDP-α-MSH = 1.0; for functional status at MC4-R in cAMP assay: normal system, 1 μM concentration where stated
MC5-R [10] = biological target: T4, MC5-R; test: Competitive inhibition assay using [I^125]-NDP-α-MSH, hMC5-R membranes; format: binding; set-up: expressed in transfected cells; conditions: 1 μM test compound; read-out: Inhibition at 1 μM (NDP-α-MSH) In Normal System, MC5-R
How it was run: as §1

MC1-R [11] = biological target: T2, MC1-R; test: cAMP functional activity assay in B-16 mouse melanoma cells; format: cell-based; conditions: 1 μM concentration where stated
Method: as §2, §3

T1 sequence (P32245 whole entry): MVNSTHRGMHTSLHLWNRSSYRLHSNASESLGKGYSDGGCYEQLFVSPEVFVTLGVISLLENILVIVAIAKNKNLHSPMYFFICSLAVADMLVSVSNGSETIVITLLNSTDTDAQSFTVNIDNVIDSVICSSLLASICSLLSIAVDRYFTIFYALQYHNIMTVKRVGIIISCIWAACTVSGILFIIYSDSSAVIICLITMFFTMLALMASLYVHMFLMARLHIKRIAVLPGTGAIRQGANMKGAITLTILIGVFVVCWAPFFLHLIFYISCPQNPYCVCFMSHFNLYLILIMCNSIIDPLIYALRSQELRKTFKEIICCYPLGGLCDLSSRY

Structure (SMILES)	inhibition at 1 µM (MC4-R [1]) [%]	Penile Erection ICV ([2]; ICV)	penile erection response ([2]; ICV, 0.01 to 10 nmol)	inhibition at 1 µM (MC1-R [3]) [%]	Ki (MC1-R [3]) [nM]	Efficacy/Intrinsic Activity (MC4-R [4])	EC50 (MC4-R [5]) [nM]	Efficacy/Intrinsic Activity (MC4-R [5])	inhibition at 1 µM (MC3-R [6]) [%]	functional status at MC3-R in cAMP assay (MC3-R [7])	functional status at MC5-R in cAMP assay (MC5-R [8])	intrinsic activity at MC4-R in a normal system (MC4-R [9])	functional status at MC4-R in cAMP assay (MC4-R [9])	inhibition at 1 µM (MC5-R [10]) [%]	functional status at MC1-R in cAMP assay (MC1-R [11])	Penile Erection IV ([2]; IV)	penile erection response ([2]; IV, 0.3 to 30 μg/kg)	penile erection response ([2]; IV, 0.3 to 3 μg/kg)
C[C@@H]1CN(C(=O)[C@H](N)Cc2ccc3ccccc3c2)[C@@H](CCCNC(=N)N)CN1C(=O)CCCc1c[nH]c2ccccc12 [Example 7]	88	No	no penile erection response	0	1200	None	72	0.38	32	no intrinsic activity (intrinsic activity below 0.1 (10%) is classified as inactive or having no intrinsic activity)	no intrinsic activity (intrinsic activity below 0.1 (10%) is classified as inactive or having no intrinsic activity)	0.4	partial agonist (intrinsic activity between 0.1 (10%) and 0.7 (70%) is classified as a partial agonist)	62	no intrinsic activity (intrinsic activity below 0.1 (10%) is classified as inactive or having no intrinsic activity)			
Cc1ccc(CCN2C[C@H](CCCNC(=N)N)N(C(=O)[C@H](N)Cc3ccc4ccccc4c3)C[C@H]2C)cc1 [Example 5, N-{3-[1-(2(R)-Amino-3-naphthalen-2-yl-propionyl)-5(R)-methyl-4-(2-p-tolyl-ethyl)-piperazin-2(S)-yl]-propyl}-guanidine]	95			32	135	None	117	0.46	61	no intrinsic activity (intrinsic activity below 0.1 (10%) is classified as inactive or having no intrinsic activity)	partial agonist (intrinsic activity between 0.1 (10%) and 0.7 (70%) is classified as a partial agonist)	0.6	partial agonist (intrinsic activity between 0.1 (10%) and 0.7 (70%) is classified as a partial agonist)	65	partial agonist (intrinsic activity between 0.1 (10%) and 0.7 (70%) is classified as a partial agonist)	No	no penile erection response	
N=C(N)NCCC[C@H]1C(=O)N(CCc2c[nH]c3ccccc23)CCN1C(=O)[C@H](N)Cc1ccc(Cl)cc1Cl [Example 2, N-(3-{(S)-1-[(R)-2-Amino-3-(2,4-dichloro-phenyl)-propionyl]-4-[2-(1H-indol-3-yl)-ethyl]-3-oxo-piperazin-2-yl}-propyl)-guanidine]	96			7	1410	None	57	0.56	57		partial agonist (intrinsic activity between 0.1 (10%) and 0.7 (70%) is classified as a partial agonist)	0.3	partial agonist (intrinsic activity between 0.1 (10%) and 0.7 (70%) is classified as a partial agonist)	35	partial agonist (intrinsic activity between 0.1 (10%) and 0.7 (70%) is classified as a partial agonist)	No		did not cause penile erection behavior
